Active and inactive are the calls of the source. The rule behind the calls is not given here.
Assay: Inhibition of rate of poly(U,C) (unknown origin)-directed L-[14C]poly-(phenylalanine) formation in Escherichia coli cell-free ribosome system at 10^-3 M by liquid scintillation counting
Format: functional

Structure (SMILES)	inhibition
COc1ccc(C[C@H](N)C(=O)N[C@@H]2CC[C@H](n3cnc4c(N(C)C)ncnc43)[C@H]2O)cc1	inactive
COc1ccc(C[C@H](N)C(=O)N[C@H]2CC[C@@H](n3cnc4c(N(C)C)ncnc43)[C@@H]2O)cc1	inactive
COc1ccc(C[C@H](N)C(=O)N[C@@H]2CCC[C@H](n3cnc4c(N(C)C)ncnc43)[C@H]2O)cc1	inactive
COc1ccc(C[C@H](N)C(=O)N[C@H]2CCC[C@@H](n3cnc4c(N(C)C)ncnc43)[C@@H]2O)cc1	inactive
COc1ccc(C[C@H](N)C(=O)N[C@H]2CC[C@H](n3cnc4c(N(C)C)ncnc43)[C@H]2O)cc1	inactive

— ChEMBL document CHEMBL3244109, “Synthesis of cyclohexyl carbocyclic puromycin and its inhibition of protein synthesis” (J Med Chem, 1977)
